From the NIST ThermoML archive (doi:10.1021/je0301794)

Tests used:
[1] = excess molar enthalpy (molar enthalpy of mixing); xn = mol fraction of the nth substance listed; details: 318.15 K, 101.3 kPa, Liquid
[2] = xn = mol fraction of the nth substance listed; details: 101.3 kPa, Liquid

COC(=O)OC [dimethyl carbonate] + CCCCCCCC
[1]
Details	excess molar enthalpy [kcal/mol]
x1 = 0.0844	0.164
x1 = 0.1746	0.299
x1 = 0.2622	0.403
x1 = 0.3463	0.475
x1 = 0.4232	0.514
x1 = 0.4922	0.528
x1 = 0.5544	0.528
x1 = 0.6104	0.516
x1 = 0.6455	0.504
x1 = 0.683	0.488
x1 = 0.7224	0.461
x1 = 0.7671	0.419
x1 = 0.8115	0.368
x1 = 0.8562	0.307
x1 = 0.8987	0.238
x1 = 0.9358	0.167
x1 = 0.9713	0.0834
x1 = 1	0

[2]
Details	mass density [kg/m3]
293.15 K, x1 = 0.0513	711.1
293.15 K, x1 = 0.0997	719.8
293.15 K, x1 = 0.2027	740.5
293.15 K, x1 = 0.3063	764.5
293.15 K, x1 = 0.3994	789.1
293.15 K, x1 = 0.5123	823.6
293.15 K, x1 = 0.6078	857.4
293.15 K, x1 = 0.7137	901.2
293.15 K, x1 = 0.8055	945.8
293.15 K, x1 = 0.9061	1004
293.15 K, x1 = 0.9516	1034.3
293.15 K, x1 = 1	1070
298.15 K, x1 = 0.0558	707.8
298.15 K, x1 = 0.096	715
298.15 K, x1 = 0.1488	725.1
298.15 K, x1 = 0.2289	741.8
298.15 K, x1 = 0.2947	756.9
298.15 K, x1 = 0.4216	790.4
298.15 K, x1 = 0.4883	810.6
298.15 K, x1 = 0.4968	813.3
298.15 K, x1 = 0.5931	846.6
298.15 K, x1 = 0.6867	884.1
298.15 K, x1 = 0.7879	931.6
298.15 K, x1 = 0.8873	987.1
